Test results reported in US8008279B2, “Compound—827” (AstraZeneca AB, priority 2007, dated 2011).

Molecular target: T1, rhuman cathepsin K (Homo sapiens, UniProt P43235)
T1 sequence (P43235 115-329): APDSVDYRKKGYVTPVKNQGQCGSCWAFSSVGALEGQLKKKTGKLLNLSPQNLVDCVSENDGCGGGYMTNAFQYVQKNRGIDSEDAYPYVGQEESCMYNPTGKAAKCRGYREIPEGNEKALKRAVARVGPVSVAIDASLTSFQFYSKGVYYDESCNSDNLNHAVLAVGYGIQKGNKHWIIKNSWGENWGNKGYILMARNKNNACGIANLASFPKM
Assay: Assay for identification of Cathepsin K inhibitors (QFRET, cleavage of Z-Phe-Arg-AMC)
Format: biochemical
Conditions: 0.5 nM rhuman cathepsin K, Z-Phe-Arg-AMC substrate, 30 min pre-incubation, 1 h incubation at room temperature, mean of two separate occasions; for IC50: read-out: CatK FRET Mean pIC50 (converted)
Procedure: 0.5 nM [final] rhuman cathepsin K in phosphate buffer was added to a 384-well black microtitre plate containing investigative compounds. The enzyme and compound were pre-incubated at room temperature for 30 minutes before the addition of […] [final] Z-Phe-Arg-AMC synthetic substrate in phosphate buffer. The plates were covered and incubated for 1 h at room temperature, protected from light. Following the incubation the reaction was stopped with 7.5% [final]acetic acid. Relative fluorescence was measured using the Ultra plate reader at a wavelength of 360 nm excitation and 425 nm emission.
Data was corrected for background fluorescence (minimum controls without enzyme).

Question: How did the IC50 turn out when N#CC1(NC(=O)[C@@H]2CCCC[C@H]2C(=O)N2CCc3[nH]c4ccc(Cl)cc4c3C2)CC1 [Example 2, (1R,2R)-2-[(8-chloro-1,3,4,5-tetrahydro-2H-pyrido[4,3-b]indol-2-yl)carbonyl]-N-(1-cyanocyclopropyl)cyclohexanecarboxamide] was run?
Answer: The IC50 was 2.99 nM.

Question: Which IC50 does the source give for N#CC1(NC(=O)[C@@H]2CCCC[C@H]2C(=O)N2CCc3[nH]c4ccc(Br)cc4c3C2)CC1 [Example 5, (1R,2R)-2-[(8-bromo-1,3,4,5-tetrahydro-2H-pyrido[4,3-b]indol-2-yl)carbonyl]-N-(1-cyanocyclopropyl)cyclohexanecarboxamide] here?
Answer: The IC50 was 6.38 nM.

Question: With N#CC1(NC(=O)[C@@H]2CCCC[C@H]2C(=O)N2CCc3[nH]c4c5c(ccc4c3C2)OC(F)(F)O5)CC1 [Example 44, (1R,2R)-N-(1-cyanocyclopropyl)-2-(2,2-difluoro-7,8,9,10-tetrahydro-6H-[1,3]dioxolo[4,5-g]pyrido[4,3-b]indole-7-carbonyl)cyclohexanecarboxamide] as the molecule, how does the IC50 read?
Answer: Its IC50 is 2.13 nM.

Question: For N#CC1(NC(=O)[C@@H]2CCCC[C@H]2C(=O)N2CCc3[nH]c4c(F)cccc4c3C2)CC1 [Example 3, (1R,2R)-N-(1-cyanocyclopropyl)-2-[(6-fluoro-1,3,4,5-tetrahydro-2H-pyrido[4,3-b]indol-2-yl)carbonyl]cyclohexanecarboxamide], which IC50 is on record?
Answer: Its IC50 is 0.767 nM.

Question: Which IC50 does the source give for N#CC1(NC(=O)[C@@H]2CCCC[C@H]2C(=O)N2CCc3[nH]c4ccc(F)cc4c3C2)CC1 [Example 1, (1R,2R)-N-(1-cyanocyclopropyl)-2-[(8-fluoro-1,3,4,5-tetrahydro-2H-pyrido[4,3-b]indol-2-yl)carbonyl]cyclohexanecarboxamide] here?
Answer: The IC50 was 0.849 nM.

Question: For N#CC1(NC(=O)[C@@H]2CCCC[C@H]2C(=O)N2CCc3[nH]c4ncccc4c3C2)CC1 [Example 14], which IC50 is on record?
Answer: The IC50 was 1.07 nM.

Question: How did the IC50 turn out when CCOc1cccc2c3c([nH]c12)CCN(C(=O)[C@@H]1CCCC[C@H]1C(=O)NC1(C#N)CC1)C3 [Example 25, (1R,2R)-N-(1-cyanocyclopropyl)-2-[(6-ethoxy-1,3,4,5-tetrahydro-2H-pyrido[4,3-b]indol-2-yl)carbonyl]cyclohexanecarboxamide] was run?
Answer: Its IC50 is 0.899 nM.

Question: With N#CC1(NC(=O)[C@@H]2CCCC[C@H]2C(=O)N2CCc3[nH]c4c(O)cccc4c3C2)CC1 [Example 33, (1R,2R)-N-(1-cyanocyclopropyl)-2-[(6-hydroxy-1,3,4,5-tetrahydro-2H-pyrido[4,3-b]indol-2-yl)carbonyl]cyclohexanecarboxamide] as the molecule, how does the IC50 read?
Answer: Its IC50 is 1.03 nM.

Question: Which IC50 does the source give for N#CC1(NC(=O)[C@@H]2CCCC[C@H]2C(=O)N2CCc3oc4ncccc4c3C2)CC1 [Example 41, (1R,2R)-2-(7,8-Dihydro-5H-furo[2,3-b:4,5-c′]dipyridine-6-carbonyl)-cyclohexanecarboxylic acid (1-cyano-cyclopropyl)-amide] here?
Answer: Its IC50 is 6.44 nM.

Question: With N#CC1(NC(=O)[C@@H]2CCCC[C@H]2C(=O)N2Cc3ccccc3C3(CCNCC3)C2)CC1 [Example 18, (1R,2R)-N-(1-cyanocyclopropyl)-2-(1H-spiro[isoquinoline-4,4′-piperidin]-2(3H)-ylcarbonyl)cyclohexanecarboxamide] as the molecule, how does the IC50 read?
Answer: Its IC50 is 7.1 nM.

Question: For COC(=O)Cn1c2c(c3ccccc31)CN(C(=O)[C@@H]1CCCC[C@H]1C(=O)NC1(C#N)CC1)CC2 [Example 26, (1R,2R)-N-(1-cyanocyclopropyl)-2-[(5-methoxycarbonylmethyl-1,3,4,5-tetrahydro-2H-pyrido[4,3-b]indol-2-yl)carbonyl]cyclohexanecarboxamide], which IC50 is on record?
Answer: The IC50 was 2.85 nM.

Question: With CN(C)CCOc1cccc2c3c([nH]c12)CCN(C(=O)[C@@H]1CCCC[C@H]1C(=O)NC1(C#N)CC1)C3 [Example 36, (1R,2R)-N-(1-cyanocyclopropyl)-2-(6-(2-(dimethylamino)ethoxy)-2,3,4,5-tetrahydro-1H-pyrido[4,3-b]indole-2-carbonyl)cyclohexanecarboxamide] as the molecule, how does the IC50 read?
Answer: The IC50 was 0.324 nM.

Question: For N#CC1(NC(=O)[C@@H]2CCCC[C@H]2C(=O)N2CCc3[nH]c4c(Br)cccc4c3C2)CC1 [Example 13, (1R,2R)-2-[(6-bromo-1,3,4,5-tetrahydro-2H-pyrido[4,3-b]indol-2-yl)carbonyl]-N-(1-cyanocyclopropyl)cyclohexanecarboxamide], which IC50 is on record?
Answer: Its IC50 is 2.24 nM.

Question: Which IC50 does the source give for CS(=O)(=O)n1c2c(c3ccccc31)CN(C(=O)[C@@H]1CCCC[C@H]1C(=O)NC1(C#N)CC1)CC2 [Example 40, (1R,2R)-N-(1-cyanocyclopropyl)-2-[(5-methanesulphonyl-1,3,4,5-tetrahydro-2H-pyrido[4,3-b]indol-2-yl)carbonyl]cyclohexanecarboxamide] here?
Answer: Its IC50 is 10.8 nM.

Question: For N#CC1(NC(=O)[C@@H]2CCCC[C@H]2C(=O)N2CCc3[nH]c4c(Cl)cccc4c3C2)CC1 [Example 19, (1R,2R)-2-[(6-chloro-1,3,4,5-tetrahydro-2H-pyrido[4,3-b]indol-2-yl)carbonyl]-N-(1-cyanocyclopropyl)cyclohexanecarboxamide], which IC50 is on record?
Answer: The IC50 was 1.78 nM.

Question: For COCCn1c2c(c3ccccc31)CN(C(=O)[C@@H]1CCCC[C@H]1C(=O)NC1(C#N)CC1)CC2 [Example 29, (1R,2R)-N-(1-cyanocyclopropyl)-2-[(5-methoxyethyl-1,3,4,5-tetrahydro-2H-pyrido[4,3-b]indol-2-yl)carbonyl]cyclohexanecarboxamide], which IC50 is on record?
Answer: The IC50 was 3.89 nM.

Question: With N#CC1(NC(=O)[C@@H]2CCCC[C@H]2C(=O)N2CCc3c(c4ccccc4n3CC3CC3)C2)CC1 [Example 28, (1R,2R)-N-(1-cyanocyclopropyl)-2-[(5-cyclopropylmethyl-1,3,4,5-tetrahydro-2H-pyrido[4,3-b]indol-2-yl)carbonyl]cyclohexanecarboxamide] as the molecule, how does the IC50 read?
Answer: The IC50 was 3.45 nM.

Question: With N#CC1(NC(=O)[C@@H]2CCCC[C@H]2C(=O)N2CCc3oc4ccccc4c3C2)CC1 [Example 23, (1R,2R)-N-(1-cyanocyclopropyl)-2-[(benzofuro[3,2-c]-1,2,3,4-tetrahydropyridyl)carbonyl]cyclohexanecarboxamide] as the molecule, how does the IC50 read?
Answer: The IC50 was 2.24 nM.

Question: With N#CC1(NC(=O)[C@@H]2CCCC[C@H]2C(=O)N2CCc3[nH]c4c(OC(F)(F)F)cccc4c3C2)CC1 [Example 24, (1R,2R)-N-(1-cyanocyclopropyl)-2-{[6-(trifluoromethoxy)-1,3,4,5-tetrahydro-2H-pyrido[4,3-b]indol-2-yl]carbonyl}cyclohexanecarboxamide] as the molecule, how does the IC50 read?
Answer: Its IC50 is 1.88 nM.

Question: Cn1c2c(c3cc(F)ccc31)CN(C(=O)[C@@H]1CCCC[C@H]1C(=O)NC1(C#N)CC1)CC2 [Example 12, (1R,2R)-N-(1-cyanocyclopropyl)-2-[(8-fluoro-5-methyl-1,3,4,5-tetrahydro-2H-pyrido[4,3-b]indol-2-yl)carbonyl]cyclohexanecarboxamide] was tested. Which IC50 did it give?
Answer: The IC50 was 2.84 nM.

Question: For N#CC1(NC(=O)[C@@H]2CCCC[C@H]2C(=O)N2CCc3[nH]c4ccccc4c3C2)CC1 [Example 4, (1R,2R)-N-(1-cyanocyclopropyl)-2-(1,3,4,5-tetrahydro-2H-pyrido[4,3-b]indol-2-ylcarbonyl)cyclohexanecarboxamide], which IC50 is on record?
Answer: The IC50 was 1.3 nM.

Question: CS(=O)(=O)c1ccc2[nH]c3c(c2c1)CN(C(=O)[C@@H]1CCCC[C@H]1C(=O)NC1(C#N)CC1)CC3 [Example 16, (1R,2R)-N-(1-cyanocyclopropyl)-2-{[8-(methylsulfonyl)-1,3,4,5-tetrahydro-2H-pyrido[4,3-b]indol-2-yl]carbonyl}cyclohexanecarboxamide] was tested. Which IC50 did it give?
Answer: The IC50 was 78.5 nM.

Question: How did the “CatK FRET Mean pIC50” value turn out when “(1R,2R)-N-(1-cyanocyclopropyl)-2-[(6-methyl-1,3,4,5-tetrahydro-2H-pyrido[4,3-b]indol-2-yl)carbonyl]cyclohexanecarboxamide [Example 6]” was run?
Answer: Its value is 8.553.

Question: For COc1cc(F)cc2c3c([nH]c12)CCN(C(=O)[C@@H]1CCCC[C@H]1C(=O)NC1(C#N)CC1)C3 [Example 45, (1R,2R)-N-(1-cyanocyclopropyl)-2-(8-fluoro-6-methoxy-2,3,4,5-tetrahydro-1H-pyrido[4,3-b]indole-2-carbonyl)cyclohexanecarboxamide], which IC50 is on record?
Answer: Its IC50 is 0.807 nM.

Question: Which IC50 does the source give for N#CC1(NC(=O)[C@@H]2CCCC[C@H]2C(=O)N2CCc3[nH]c4cc(F)ccc4c3C2)CC1 [Example 10, (1R,2R)-N-(1-cyanocyclopropyl)-2-[(7-fluoro-1,3,4,5-tetrahydro-2H-pyrido[4,3-b]indol-2-yl)carbonyl]cyclohexanecarboxamide] here?
Answer: Its IC50 is 10.2 nM.

Question: How did the IC50 turn out when N#CC1(NC(=O)[C@@H]2CCCC[C@H]2C(=O)N2CCc3[nH]c4ccc(C(F)(F)F)cc4c3C2)CC1 [Example 7, (1R,2R)-N-(1-cyanocyclopropyl)-2-{[8-(trifluoromethyl)-1,3,4,5-tetrahydro-2H-pyrido[4,3-b]indol-2-yl]carbonyl}cyclohexanecarboxamide] was run?
Answer: The IC50 was 42.1 nM.

Question: With N#CC1(NC(=O)[C@@H]2CCCC[C@H]2C(=O)N2CCc3[nH]c4cccc(F)c4c3C2)CC1 [Example 9, (1R,2R)-N-(1-cyanocyclopropyl)-2-[(9-fluoro-1,3,4,5-tetrahydro-2H-pyrido[4,3-b]indol-2-yl)carbonyl]cyclohexanecarboxamide] as the molecule, how does the IC50 read?
Answer: The IC50 was 49.9 nM.

Question: For N#CCOc1cccc2c3c([nH]c12)CCN(C(=O)[C@@H]1CCCC[C@H]1C(=O)NC1(C#N)CC1)C3 [Example 35, (1R,2R)-N-(1-cyanocyclopropyl)-2-{[6-(cyanomethoxy)-1,3,4,5-tetrahydro-2H-pyrido[4,3-b]indol-2-yl]carbonyl}cyclohexanecarboxamide], which IC50 is on record?
Answer: The IC50 was 0.558 nM.

Question: For CSc1cccc2c3c([nH]c12)CCN(C(=O)[C@@H]1CCCC[C@H]1C(=O)NC1(C#N)CC1)C3 [Example 22, (1R,2R)-N-(1-cyanocyclopropyl)-2-{[6-(methylthio)-1,3,4,5-tetrahydro-2H-pyrido[4,3-b]indol-2-yl]carbonyl}cyclohexanecarboxamide], which IC50 is on record?
Answer: Its IC50 is 4.32 nM.
